We go through 15 compounds from patent US7109354B2, “Thiophene amidines, compositions thereof, and methods of treating complement-mediated diseases and conditions” (3-Dimensional Pharmaceuticals, Inc., priority 2002, dated 2006).

SMILES strings stand for the structures.

This test concerns the target T1, Activated human C1s (Homo sapiens, UniProt P09871).
T1 construct: purchased Calbiochem (La Jolla, Calif.)
T1 sequence (P09871 438-688 limits assumed): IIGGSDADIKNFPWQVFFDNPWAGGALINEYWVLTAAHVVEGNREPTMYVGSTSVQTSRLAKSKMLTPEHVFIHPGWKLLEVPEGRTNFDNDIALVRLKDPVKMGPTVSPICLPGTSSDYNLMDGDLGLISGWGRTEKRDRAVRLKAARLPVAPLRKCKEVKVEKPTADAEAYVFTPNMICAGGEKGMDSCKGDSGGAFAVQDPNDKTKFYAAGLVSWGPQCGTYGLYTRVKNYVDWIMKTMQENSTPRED
T1 sequence (P09871 16-437 partner limits assumed): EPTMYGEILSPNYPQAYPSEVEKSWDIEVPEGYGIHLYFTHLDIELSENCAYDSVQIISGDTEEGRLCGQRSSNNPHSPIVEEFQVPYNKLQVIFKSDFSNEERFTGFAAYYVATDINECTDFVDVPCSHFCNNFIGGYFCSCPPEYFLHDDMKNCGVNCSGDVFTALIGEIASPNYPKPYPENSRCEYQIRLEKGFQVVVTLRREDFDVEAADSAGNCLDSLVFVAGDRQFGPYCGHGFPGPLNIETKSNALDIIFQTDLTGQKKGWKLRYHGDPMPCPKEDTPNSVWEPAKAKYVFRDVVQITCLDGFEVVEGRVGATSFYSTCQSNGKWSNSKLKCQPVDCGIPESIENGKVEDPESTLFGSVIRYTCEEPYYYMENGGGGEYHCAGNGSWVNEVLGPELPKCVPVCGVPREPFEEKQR
Kind of test: In vitro inhibition of C1s (Ki determination, C1s-catalyzed hydrolysis of Z-Gly-Arg-S-Bzl, DTNB readout). Particulars: substrate Z-Gly-Arg-S-Bzl 45 μM, DTNB 200 μM, C1s 2.3 nM, pH 7.5, 37° C., absorbance at 405 nm. In kind it is biochemical. As for the experimental part:
Reagents: All buffer salts were obtained from Sigma Chemical Company (St. Louis, Mo.), and were of the highest purity available. DTNB was purchased from Pierce (Rockford, Ill.). Z-Gly-Arg-S-Bzl was purchased from Enzyme Systems Products (Livermore, Calif.). Activated human C1s was purchased from Calbiochem (La Jolla, Calif.).
Test compounds are prepared as a 10 μM solution in DMSO. Dilutions are prepared in DMSO yielding 7 final concentrations encompassing a 700-fold concentration range.
Reactions were initiated by the addition of a 10 μL aliquot of the enzyme, and the absorbance increase at 405 nm is continuously recorded for 15 minutes in a Molecular Devices plate reader. Final DMSO concentration was 4.3%. […] The ratio of the velocity (rate of change in absorbance as a function of time) for a sample containing no test compound is divided by the velocity of a sample containing test compound, and is plotted as a function of test compound concentration. The data are fit to a linear regression, and the value of the slope of the line calculated. The inverse of the slope is the experimentally determined Ki value.
Consider `CSc1sc(C(=N)N)cc1S(=O)(=O)c1ccc2ccccc2c1` [Example 37, 5-Methylsulfanyl-4-(naphthalene-2-sulfonyl)-thiophene-2-carboxamidine triflouroacetate], for which the inhibition constant Ki (commonly the dissociation constant of the complex between target and ligand, obtained from inhibition or displacement) fell in the range of 6 to 23 nM.

`COc1ccc(-c2cccc(S(=O)(=O)c3cc(C(=N)N)sc3SC)c2)c(OC)c1` [Example 41, 4-(2′,4′-Dimethoxy-biphenyl-3-sulfonyl)-5-methylsulfanyl-thiophene-2-carboxamidine] had a Ki of 6 to 23 nM.

Compound `COc1ccc(-c2cccc(S(=O)(=O)c3cc(C(=N)N)sc3SC)c2)cc1` [Example 42, 4-(4′-Methoxy-biphenyl-3-sulfonyl)-5-methylsulfanyl-thiophene-2-carboxamidine] had an inhibition constant (Ki) of 6 to 23 nM.

`COc1ccc(-c2cccc(S(=O)(=O)c3cc(C(=N)N)sc3SC)c2)cc1OC` [Example 43, 4-(3′,4′-Dimethoxy-biphenyl-3-sulfonyl)-5-methylsulfanyl-thiophene-2-carboxamidine]: the Ki lay within 6 to 23 nM.

The compound `COc1cccc(-c2cccc(S(=O)(=O)c3cc(C(=N)N)sc3SC)c2)c1` [Example 44, 4-(3′-Methoxy-biphenyl-3-sulfonyl)-5-methylsulfanyl-thiophene-2-carboxamidine] had an inhibition constant (Ki) of 6 to 23 nM.

Take `COc1ccccc1-c1cccc(S(=O)(=O)c2cc(C(=N)N)sc2SC)c1` [Example 45, 4-(2′-Methoxy-biphenyl-3-sulfonyl)-5-methylsulfanyl-thiophene-2-carboxamidine]: the Ki lay within 6 to 23 nM.

In turn, `CSc1sc(C(=N)N)cc1S(=O)(=O)c1cccc(-c2cc(Cl)cc(Cl)c2)c1` [Example 46, 4-(3′,5′-Dichloro-biphenyl-3-sulfonyl)-5-methylsulfanyl-thiophene-2-carboxamidine] displayed a Ki of 6 to 23 nM.

As to `CSc1sc(C(=N)N)cc1S(=O)(=O)c1cccc(-c2cc(Cl)ccc2Cl)c1` [Example 47, 4-(2′,5′-Dichloro-biphenyl-3-sulfonyl)-5-methylsulfanyl-thiophene-2-carboxamidine], the Ki was 6 to 23 nM.

Consider `CSc1sc(C(=N)N)cc1S(=O)(=O)c1cccc(-c2cc(C(F)(F)F)cc(C(F)(F)F)c2)c1` [Example 48, 4-(3′,5′-Bis-trifluoromethyl-biphenyl-3-sulfonyl)-5-methylsulfanyl-thiophene-2-carboxamidine], for which the Ki fell in the range of 6 to 23 nM.

`CSc1sc(C(=N)N)cc1S(=O)(=O)c1cccc(-c2cc3ccccc3o2)c1` [Example 49, 4-(3-Benzofuran-2-yl-benzenesulfonyl)-5-methylsulfanyl-thiophene-2-carboxamidine]: the inhibition constant (Ki) lay within 6 to 23 nM.

Turning to `CSc1sc(C(=N)N)cc1S(=O)(=O)c1cccc(-c2cc3ccccc3s2)c1` [Example 50, 4-(3-Benzo[b]thiophen-2-yl-benzenesulfonyl)-5-methylsulfanyl-thiophene-2-carboxamidine], the Ki is 6 to 23 nM.

`CSc1sc(C(=N)N)cc1S(=O)(=O)c1cccc(-c2ccc(C)c([N+](=O)[O-])c2)c1` [Example 51, 4-(4′-Methyl-3′-nitro-biphenyl-3-sulfonyl)-5-methylsulfanyl-thiophene-2-carboxamidine] had an inhibitory constant (Ki) of 6 to 23 nM.

As to `CSc1sc(C(=N)N)cc1S(=O)(=O)c1cccc(-c2ccc(C)cc2)c1` [Example 52, 4-(4′-Methyl-biphenyl-3-sulfonyl)-5-methylsulfanyl-thiophene-2-carboxamidine], the Ki was 6 to 23 nM.

`CSc1sc(C(=N)N)cc1S(=O)(=O)c1cccc(-c2ccc(Cl)cc2)c1` [Example 53, 4-(4′-Chloro-biphenyl-3-sulfonyl)-5-methylsulfanyl-thiophene-2-carboxamidine] showed an inhibition constant (Ki) of 6 to 23 nM.

The compound `CSc1sc(C(=N)N)cc1S(=O)(=O)c1cccc(-c2ccc(C(F)(F)F)cc2)c1` [Example 54, 5-Methylsulfanyl-4-(4′-trifluoromethyl-biphenyl-3-sulfonyl)-thiophene-2-carboxamidine] had a Ki of 6 to 23 nM.
